# Measured values taken from ChEMBL document CHEMBL5715956, “Selective Targeting of Bromodomains of the Bromodomain-PHD Fingers Family Impairs Osteoclast Differentiation” (ACS Chem Biol, 2017).
# Legend:
# [1] = molecular target: T1, Bromodomain-containing protein 1 (Homo sapiens) (UniProt O95696); assay: Binding affinity to BRPF2 (unknown origin) assessed as change in enthalpy at 12 uM by Isothermal titration calorimetry
# T1 sequence (whole entry): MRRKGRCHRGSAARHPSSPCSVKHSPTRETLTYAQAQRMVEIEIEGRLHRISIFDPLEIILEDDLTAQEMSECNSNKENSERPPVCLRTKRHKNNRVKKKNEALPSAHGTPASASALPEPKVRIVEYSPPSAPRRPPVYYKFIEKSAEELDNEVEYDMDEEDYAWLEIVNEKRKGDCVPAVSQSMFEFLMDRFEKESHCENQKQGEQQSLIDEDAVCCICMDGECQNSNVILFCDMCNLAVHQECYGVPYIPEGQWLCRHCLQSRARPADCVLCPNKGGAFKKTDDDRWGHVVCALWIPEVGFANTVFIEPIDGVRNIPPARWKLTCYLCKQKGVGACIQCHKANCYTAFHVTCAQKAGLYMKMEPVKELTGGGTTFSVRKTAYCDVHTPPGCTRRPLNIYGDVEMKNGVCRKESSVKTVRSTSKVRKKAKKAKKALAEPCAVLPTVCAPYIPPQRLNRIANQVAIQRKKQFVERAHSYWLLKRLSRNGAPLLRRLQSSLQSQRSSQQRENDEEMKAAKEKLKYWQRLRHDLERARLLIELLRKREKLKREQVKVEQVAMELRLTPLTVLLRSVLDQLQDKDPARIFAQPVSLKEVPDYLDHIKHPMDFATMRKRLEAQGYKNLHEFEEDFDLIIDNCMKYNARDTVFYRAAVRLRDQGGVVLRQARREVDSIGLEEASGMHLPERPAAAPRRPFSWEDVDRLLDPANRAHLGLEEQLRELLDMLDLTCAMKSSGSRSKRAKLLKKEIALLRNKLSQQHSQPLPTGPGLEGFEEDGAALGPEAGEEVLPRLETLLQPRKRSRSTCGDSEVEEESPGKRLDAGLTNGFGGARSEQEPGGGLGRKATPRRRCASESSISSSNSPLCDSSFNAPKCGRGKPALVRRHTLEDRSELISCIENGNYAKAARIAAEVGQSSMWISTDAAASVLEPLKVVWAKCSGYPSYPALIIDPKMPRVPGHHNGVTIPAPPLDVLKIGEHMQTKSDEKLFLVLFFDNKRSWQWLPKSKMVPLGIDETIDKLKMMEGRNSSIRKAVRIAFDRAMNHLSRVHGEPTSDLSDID
# [2] = molecular target: T1, Bromodomain-containing protein 1 (Homo sapiens); assay: Binding affinity to BRPF2 (unknown origin) assessed as change in entropy TdeltaS at 12 uM by Isothermal titration calorimetry
# [3] = molecular target: Beta-2 adrenergic receptor (Homo sapiens) (UniProt P07550); assay: Inhibition of Beta2 (unknown origin) at 10 uM relative to control
# Chain of Beta-2 adrenergic receptor (Homo sapiens) (P07550 whole entry, looked up): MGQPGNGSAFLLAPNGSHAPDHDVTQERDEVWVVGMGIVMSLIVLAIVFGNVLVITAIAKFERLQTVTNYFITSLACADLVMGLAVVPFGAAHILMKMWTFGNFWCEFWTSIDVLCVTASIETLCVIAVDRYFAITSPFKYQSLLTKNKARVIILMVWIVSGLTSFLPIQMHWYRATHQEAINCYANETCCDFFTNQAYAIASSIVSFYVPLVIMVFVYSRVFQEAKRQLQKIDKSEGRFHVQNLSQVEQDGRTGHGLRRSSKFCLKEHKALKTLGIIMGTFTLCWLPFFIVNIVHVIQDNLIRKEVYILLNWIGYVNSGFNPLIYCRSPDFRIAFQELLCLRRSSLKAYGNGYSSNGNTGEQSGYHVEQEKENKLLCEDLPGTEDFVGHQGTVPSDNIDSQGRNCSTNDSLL
# [4] = molecular target: Adenosine receptor A1 (Homo sapiens) (UniProt P30542); assay: Binding affinity to A1 receptor (unknown origin) assessed as specific binding at 10 uM relative to control
# [5] = molecular target: Bromodomain-containing protein 2 (Homo sapiens) (UniProt P25440); conditions: dose 10.0 µM
# [6] = molecular target: Bromodomain-containing protein 4 (Homo sapiens) (UniProt O60885); conditions: dose 10.0 µM
# [7] = molecular target: Bromodomain and WD repeat-containing protein 3 (Homo sapiens) (UniProt Q6RI45); conditions: dose 10.0 µM
# Chain of Bromodomain and WD repeat-containing protein 3 (Homo sapiens) (Q6RI45 whole entry): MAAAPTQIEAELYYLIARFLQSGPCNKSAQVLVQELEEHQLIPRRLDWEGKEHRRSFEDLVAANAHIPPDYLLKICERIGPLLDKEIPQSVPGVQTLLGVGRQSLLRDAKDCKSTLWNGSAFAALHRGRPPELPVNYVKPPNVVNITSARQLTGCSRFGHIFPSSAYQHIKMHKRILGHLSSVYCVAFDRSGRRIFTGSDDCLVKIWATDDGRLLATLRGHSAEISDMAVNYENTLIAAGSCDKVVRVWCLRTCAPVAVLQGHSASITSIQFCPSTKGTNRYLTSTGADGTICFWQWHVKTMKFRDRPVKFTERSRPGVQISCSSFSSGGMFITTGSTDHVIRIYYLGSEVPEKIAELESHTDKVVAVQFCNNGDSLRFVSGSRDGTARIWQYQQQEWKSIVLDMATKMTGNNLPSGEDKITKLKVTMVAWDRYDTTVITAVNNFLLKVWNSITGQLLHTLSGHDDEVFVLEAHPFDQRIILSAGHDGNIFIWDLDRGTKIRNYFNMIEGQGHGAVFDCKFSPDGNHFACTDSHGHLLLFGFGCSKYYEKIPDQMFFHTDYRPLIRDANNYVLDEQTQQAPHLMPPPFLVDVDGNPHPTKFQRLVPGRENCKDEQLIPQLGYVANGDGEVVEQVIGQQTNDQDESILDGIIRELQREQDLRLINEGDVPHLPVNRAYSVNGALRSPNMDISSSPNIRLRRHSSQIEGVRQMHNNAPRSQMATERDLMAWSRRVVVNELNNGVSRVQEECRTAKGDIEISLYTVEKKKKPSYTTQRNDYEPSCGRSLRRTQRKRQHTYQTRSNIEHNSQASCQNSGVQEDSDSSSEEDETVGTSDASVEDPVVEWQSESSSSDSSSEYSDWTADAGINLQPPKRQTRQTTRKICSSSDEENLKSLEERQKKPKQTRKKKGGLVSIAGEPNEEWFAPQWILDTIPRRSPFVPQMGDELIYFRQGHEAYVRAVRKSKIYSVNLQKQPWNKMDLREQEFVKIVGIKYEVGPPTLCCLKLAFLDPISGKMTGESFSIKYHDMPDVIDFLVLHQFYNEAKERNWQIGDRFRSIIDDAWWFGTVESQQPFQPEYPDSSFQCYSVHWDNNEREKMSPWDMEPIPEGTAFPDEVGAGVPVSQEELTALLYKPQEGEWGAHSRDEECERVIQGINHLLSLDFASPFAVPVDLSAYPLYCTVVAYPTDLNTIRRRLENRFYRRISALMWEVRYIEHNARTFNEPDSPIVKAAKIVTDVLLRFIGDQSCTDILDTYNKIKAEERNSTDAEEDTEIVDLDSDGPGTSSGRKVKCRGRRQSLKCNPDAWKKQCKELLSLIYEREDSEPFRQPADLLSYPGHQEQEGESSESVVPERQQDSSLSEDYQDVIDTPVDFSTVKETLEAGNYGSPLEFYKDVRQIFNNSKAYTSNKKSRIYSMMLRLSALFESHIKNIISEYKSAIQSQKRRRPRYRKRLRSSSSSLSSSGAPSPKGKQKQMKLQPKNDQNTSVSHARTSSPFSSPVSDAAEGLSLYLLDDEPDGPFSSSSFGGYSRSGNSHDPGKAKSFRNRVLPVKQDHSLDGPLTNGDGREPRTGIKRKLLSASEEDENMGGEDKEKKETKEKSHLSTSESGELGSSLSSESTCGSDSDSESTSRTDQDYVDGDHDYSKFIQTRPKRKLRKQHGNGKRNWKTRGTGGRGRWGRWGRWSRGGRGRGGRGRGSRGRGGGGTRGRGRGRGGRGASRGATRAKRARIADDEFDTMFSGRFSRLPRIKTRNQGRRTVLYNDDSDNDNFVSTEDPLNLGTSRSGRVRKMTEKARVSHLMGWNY
# [8] = molecular target: Nucleosome-remodeling factor subunit BPTF (Homo sapiens) (UniProt Q12830); conditions: dose 10.0 µM
# [9] = molecular target: Histone acetyltransferase KAT2A (Homo sapiens) (UniProt Q92830); conditions: dose 10.0 µM
# [10] = molecular target: ATPase family AAA domain-containing protein 2B (Homo sapiens) (UniProt Q9ULI0); conditions: dose 10.0 µM
# [11] = molecular target: Histone-lysine N-methyltransferase 2A (Homo sapiens) (UniProt Q03164); conditions: dose 10.0 µM
# [12] = molecular target: Nuclear body protein SP140 (Homo sapiens) (UniProt Q13342); conditions: dose 10.0 µM
# Chain of Nuclear body protein SP140 (Homo sapiens) (Q13342 whole entry): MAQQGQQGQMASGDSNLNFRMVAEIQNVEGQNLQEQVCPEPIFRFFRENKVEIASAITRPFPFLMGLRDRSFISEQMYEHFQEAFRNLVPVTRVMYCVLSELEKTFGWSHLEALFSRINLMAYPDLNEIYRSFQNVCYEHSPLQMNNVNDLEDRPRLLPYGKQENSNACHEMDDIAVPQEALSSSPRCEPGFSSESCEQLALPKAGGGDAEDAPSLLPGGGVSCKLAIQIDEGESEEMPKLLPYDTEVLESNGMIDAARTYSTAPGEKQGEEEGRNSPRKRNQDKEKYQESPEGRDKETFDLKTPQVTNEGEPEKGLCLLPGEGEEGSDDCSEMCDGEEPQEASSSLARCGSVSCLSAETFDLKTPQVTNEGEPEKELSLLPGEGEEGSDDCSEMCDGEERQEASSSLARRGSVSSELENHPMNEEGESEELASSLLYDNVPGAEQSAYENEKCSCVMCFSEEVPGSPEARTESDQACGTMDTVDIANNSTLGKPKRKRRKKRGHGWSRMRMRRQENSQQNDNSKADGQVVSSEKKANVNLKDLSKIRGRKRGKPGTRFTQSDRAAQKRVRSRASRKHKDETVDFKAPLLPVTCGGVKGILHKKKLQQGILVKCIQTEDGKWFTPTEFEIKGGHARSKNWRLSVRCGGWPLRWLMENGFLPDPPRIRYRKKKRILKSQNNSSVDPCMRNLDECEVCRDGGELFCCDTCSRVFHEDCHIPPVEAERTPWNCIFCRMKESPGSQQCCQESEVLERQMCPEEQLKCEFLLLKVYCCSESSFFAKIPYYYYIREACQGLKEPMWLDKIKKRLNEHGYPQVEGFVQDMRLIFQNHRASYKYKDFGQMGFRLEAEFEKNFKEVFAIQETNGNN
# [13] = molecular target: Transcription initiation factor TFIID subunit 1 (Homo sapiens) (UniProt P21675); conditions: dose 10.0 µM
# Chain of Transcription initiation factor TFIID subunit 1 (Homo sapiens) (P21675 whole entry): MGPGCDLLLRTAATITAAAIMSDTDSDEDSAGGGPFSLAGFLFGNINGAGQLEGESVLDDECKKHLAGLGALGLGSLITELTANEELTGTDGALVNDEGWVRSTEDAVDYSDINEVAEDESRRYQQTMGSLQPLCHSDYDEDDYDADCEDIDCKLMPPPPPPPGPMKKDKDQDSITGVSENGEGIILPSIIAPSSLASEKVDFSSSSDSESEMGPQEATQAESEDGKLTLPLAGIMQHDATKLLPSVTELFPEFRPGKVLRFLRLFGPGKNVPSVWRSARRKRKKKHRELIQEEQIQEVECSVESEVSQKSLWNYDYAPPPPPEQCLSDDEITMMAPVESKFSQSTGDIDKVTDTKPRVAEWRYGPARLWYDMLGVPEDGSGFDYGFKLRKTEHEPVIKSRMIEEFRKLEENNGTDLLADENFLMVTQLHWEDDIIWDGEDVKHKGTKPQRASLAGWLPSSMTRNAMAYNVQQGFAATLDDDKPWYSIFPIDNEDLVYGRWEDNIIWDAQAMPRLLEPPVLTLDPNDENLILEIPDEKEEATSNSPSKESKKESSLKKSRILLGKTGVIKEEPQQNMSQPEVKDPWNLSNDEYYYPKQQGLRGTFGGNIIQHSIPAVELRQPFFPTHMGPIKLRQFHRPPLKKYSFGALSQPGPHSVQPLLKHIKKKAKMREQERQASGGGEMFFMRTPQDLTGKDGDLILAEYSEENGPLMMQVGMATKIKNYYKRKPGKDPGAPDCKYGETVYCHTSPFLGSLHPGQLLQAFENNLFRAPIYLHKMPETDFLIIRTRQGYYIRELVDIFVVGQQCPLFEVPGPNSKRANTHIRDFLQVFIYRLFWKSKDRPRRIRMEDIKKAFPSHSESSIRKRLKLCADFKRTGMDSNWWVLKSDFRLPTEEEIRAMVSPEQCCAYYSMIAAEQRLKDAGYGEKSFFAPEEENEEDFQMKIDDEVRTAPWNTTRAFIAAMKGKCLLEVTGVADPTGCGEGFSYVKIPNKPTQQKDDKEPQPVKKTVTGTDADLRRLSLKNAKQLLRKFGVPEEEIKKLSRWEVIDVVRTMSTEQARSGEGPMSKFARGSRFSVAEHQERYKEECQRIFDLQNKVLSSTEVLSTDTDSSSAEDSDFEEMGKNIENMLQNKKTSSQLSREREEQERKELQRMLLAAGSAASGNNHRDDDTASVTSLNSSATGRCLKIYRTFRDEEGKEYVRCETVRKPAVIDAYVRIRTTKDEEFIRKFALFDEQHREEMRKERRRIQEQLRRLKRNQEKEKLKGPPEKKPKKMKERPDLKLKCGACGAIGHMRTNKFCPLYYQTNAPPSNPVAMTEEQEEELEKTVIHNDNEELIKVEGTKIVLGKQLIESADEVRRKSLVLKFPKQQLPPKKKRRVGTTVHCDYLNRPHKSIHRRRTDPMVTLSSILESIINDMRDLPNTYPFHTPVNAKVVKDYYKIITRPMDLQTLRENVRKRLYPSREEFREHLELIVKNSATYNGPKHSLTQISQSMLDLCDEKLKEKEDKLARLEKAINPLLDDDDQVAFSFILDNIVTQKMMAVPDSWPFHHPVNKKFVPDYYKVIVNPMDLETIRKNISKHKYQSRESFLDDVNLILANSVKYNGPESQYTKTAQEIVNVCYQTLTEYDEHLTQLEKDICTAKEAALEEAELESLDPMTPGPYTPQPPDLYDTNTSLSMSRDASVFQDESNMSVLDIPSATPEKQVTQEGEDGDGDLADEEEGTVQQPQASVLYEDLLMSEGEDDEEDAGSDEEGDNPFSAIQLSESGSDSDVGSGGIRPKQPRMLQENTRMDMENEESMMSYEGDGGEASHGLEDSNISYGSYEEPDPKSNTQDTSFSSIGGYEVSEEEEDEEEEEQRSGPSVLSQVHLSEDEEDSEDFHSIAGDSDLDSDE
# [14] = molecular target: Transcription initiation factor TFIID subunit 1-like (Homo sapiens) (UniProt Q8IZX4); conditions: dose 10.0 µM
smiles,measurement,setting,value
COc1cc2c(cc1NS(=O)(=O)c1ccc(Br)cc1C)n(C)c(=O)n2C,deltaH,[1],-9.5 kcal/mol
same,TdeltaS,[2],-1.2 kcal/mol
same,inhibition,[3],8%
same,Activity,[4],19.8%
same,ΔTm,[5],0.8 °C
same,ΔTm,[6],0.6 °C
same,ΔTm,[7],1.3 °C
same,ΔTm,[8],0.9 °C
same,ΔTm,[9],-0.4 °C
same,ΔTm,[10],-0.3 °C
same,ΔTm,[11],0.3 °C
same,ΔTm,[12],0.1 °C
same,ΔTm,[13],0.2 °C
same,ΔTm,[14],1.4 °C
